The target of assay [1] is EZH2 (Homo sapiens (Human), UniProt Q15910). Briefly: ELISA (H3K27 methylation) assay in G401 cell. Format: cell-based. As to conditions: (b) ELISA Qualified assay, 48 h. On the procedure: Representative compounds of the invention were serially and separately diluted 3-fold in DO to obtain a total of eight or twelve concentrations. Then the compounds were added to G401 cell cultured in 384-well plate at 1:500 dilution to obtain the highest concentration of 20 μM. The cells were further cultured for 48 h before ELISA procedure.
Chain of EZH2 (Q15910 whole entry): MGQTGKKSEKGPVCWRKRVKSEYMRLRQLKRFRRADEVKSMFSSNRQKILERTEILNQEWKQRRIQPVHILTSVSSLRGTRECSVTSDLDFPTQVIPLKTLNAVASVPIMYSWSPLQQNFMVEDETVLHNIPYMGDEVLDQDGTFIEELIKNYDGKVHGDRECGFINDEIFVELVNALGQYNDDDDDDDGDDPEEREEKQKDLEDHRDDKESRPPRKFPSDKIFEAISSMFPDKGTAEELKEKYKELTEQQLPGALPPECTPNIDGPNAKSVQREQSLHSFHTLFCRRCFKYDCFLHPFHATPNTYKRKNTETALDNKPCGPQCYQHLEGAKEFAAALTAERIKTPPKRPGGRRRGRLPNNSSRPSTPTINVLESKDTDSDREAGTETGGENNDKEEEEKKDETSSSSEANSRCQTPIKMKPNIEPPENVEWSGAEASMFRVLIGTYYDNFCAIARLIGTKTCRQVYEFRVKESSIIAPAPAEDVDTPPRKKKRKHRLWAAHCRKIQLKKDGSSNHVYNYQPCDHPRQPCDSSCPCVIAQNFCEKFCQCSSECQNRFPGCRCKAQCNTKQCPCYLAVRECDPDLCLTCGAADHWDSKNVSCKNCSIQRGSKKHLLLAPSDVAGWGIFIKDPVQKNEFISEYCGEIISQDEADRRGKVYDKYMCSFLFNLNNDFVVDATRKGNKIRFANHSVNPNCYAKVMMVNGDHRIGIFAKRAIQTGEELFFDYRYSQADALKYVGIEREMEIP
Chain of EZH2 (Q15022 whole entry partner): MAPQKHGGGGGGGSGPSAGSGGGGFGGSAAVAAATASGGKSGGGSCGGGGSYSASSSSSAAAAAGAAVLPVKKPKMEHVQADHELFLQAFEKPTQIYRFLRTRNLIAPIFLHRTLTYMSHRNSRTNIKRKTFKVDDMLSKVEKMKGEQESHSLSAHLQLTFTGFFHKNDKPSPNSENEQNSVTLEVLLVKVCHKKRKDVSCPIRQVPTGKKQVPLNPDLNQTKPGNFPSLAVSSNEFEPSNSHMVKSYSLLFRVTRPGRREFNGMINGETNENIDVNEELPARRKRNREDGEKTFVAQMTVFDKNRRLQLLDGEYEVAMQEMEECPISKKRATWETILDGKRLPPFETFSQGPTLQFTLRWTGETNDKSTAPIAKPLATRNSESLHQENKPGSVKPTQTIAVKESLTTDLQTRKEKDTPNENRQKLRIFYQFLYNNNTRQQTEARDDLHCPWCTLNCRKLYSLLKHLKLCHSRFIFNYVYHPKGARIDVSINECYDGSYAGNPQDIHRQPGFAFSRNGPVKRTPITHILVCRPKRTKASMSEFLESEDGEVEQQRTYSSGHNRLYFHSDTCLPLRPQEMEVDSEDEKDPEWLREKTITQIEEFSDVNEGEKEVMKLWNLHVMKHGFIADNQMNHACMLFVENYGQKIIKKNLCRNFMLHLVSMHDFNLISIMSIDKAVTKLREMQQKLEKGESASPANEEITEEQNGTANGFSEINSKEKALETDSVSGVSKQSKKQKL
Chain of EZH2 (O75530 whole entry partner): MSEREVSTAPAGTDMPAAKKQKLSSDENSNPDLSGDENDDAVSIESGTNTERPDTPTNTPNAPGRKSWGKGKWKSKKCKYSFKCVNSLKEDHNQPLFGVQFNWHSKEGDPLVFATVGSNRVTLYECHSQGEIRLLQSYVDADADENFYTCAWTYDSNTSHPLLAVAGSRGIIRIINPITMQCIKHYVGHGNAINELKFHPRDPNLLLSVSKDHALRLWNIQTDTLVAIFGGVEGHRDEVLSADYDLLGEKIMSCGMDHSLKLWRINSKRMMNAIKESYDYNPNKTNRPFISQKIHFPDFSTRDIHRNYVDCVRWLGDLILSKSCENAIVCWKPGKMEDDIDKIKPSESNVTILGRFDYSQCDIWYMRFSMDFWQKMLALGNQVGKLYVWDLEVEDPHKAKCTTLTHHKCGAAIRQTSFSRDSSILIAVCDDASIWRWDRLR
Chain of EZH2 (Q09028 whole entry partner): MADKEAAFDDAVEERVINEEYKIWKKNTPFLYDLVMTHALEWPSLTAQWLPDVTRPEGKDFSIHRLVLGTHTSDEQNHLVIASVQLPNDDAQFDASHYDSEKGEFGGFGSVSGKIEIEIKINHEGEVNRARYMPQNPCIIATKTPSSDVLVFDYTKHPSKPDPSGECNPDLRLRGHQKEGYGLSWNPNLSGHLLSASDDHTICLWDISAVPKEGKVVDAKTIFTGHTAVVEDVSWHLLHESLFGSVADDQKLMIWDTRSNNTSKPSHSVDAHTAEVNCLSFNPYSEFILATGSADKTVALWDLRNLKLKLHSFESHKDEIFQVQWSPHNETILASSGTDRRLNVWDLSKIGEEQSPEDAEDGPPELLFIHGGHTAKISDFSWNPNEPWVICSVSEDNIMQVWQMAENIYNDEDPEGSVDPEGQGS
ELISA protocol: Cell lysates were transferred to the wells of a 384-well plate and the final volume was adjusted to 50 μL per well with PBS. The plate was sealed, centrifuged at 2,000 rpm for 2 min and incubated at 4° C. for about 16 h. The plate was washed with TBST buffer (1×TBS (10×TBS: 24.2 g Tris (Sigma, T6066), 80 g NaCl (Sigma, S3014) to 1 L of water and adjust pH to 7.6 with HCl) with 0.1% Tween-20). Blocking buffer (TBST, 5% BSA; 50 μL per well) was added and the plate was incubated for 1 h at rt. The blocking buffer was removed and primary antibody was added (30 μL per well). […] The primary antibody was incubated in the plate at rt for 1 h. The wells were washed with TBST and incubated with secondary antibody for 1 h at rt.
After 1 h of incubation at rt, the wells were washed with TBST. […] The signal was read using a PerkinElmer Envision Reader. The H3K27 methylation readouts were normalized using H3 signal and then percentage inhibition was calculated against the samples treated with DO. The data were fit to a dose response curve using the program Helios to get the IC50 values of the test compound.

In assay [2] the target is wild type PRC2 (wtPRC2) complex (Homo sapiens (Human), UniProt Q15910). Briefly: EZH2 LC-MS assay (LC-Qualified). Format: biochemical. The conditions noted are these: (a) LC-Qualified assay. The protocol: Representative compounds of the invention were serially and separately diluted 3-fold in DMSO to obtain twelve concentrations. […] Solutions (6 μL) of 80 nM wild type PRC2 (wtPRC2) complex and 60 μM SAM in reaction buffer (20 mM Tris, pH 8.0, 0.1% BSA, 0.01% Triton, 0.5 mM DTT) were added to the wells that were then incubated with the test compound for 20 min. A 6 μL solution of 3 μM of the substrate peptide H3K27me1 (histone H3[21-44]-K27me1-biotin) and 6 μM regulatory peptide H3K27me3 (histone H3[21-44]-K27me3) in reaction buffer was added to initiate each reaction. […] The data were fit to a dose response equation using the program Helios to get the IC50 values of the test compound.
Chain of wild type PRC2 (wtPRC2) complex (Q15910 whole entry): as the sequence (Q15910 whole entry) above
Chain of wild type PRC2 (wtPRC2) complex (Q15022 whole entry partner): as the sequence (Q15022 whole entry partner) above
Chain of wild type PRC2 (wtPRC2) complex (O75530 whole entry partner): as the sequence (O75530 whole entry partner) above
Chain of wild type PRC2 (wtPRC2) complex (Q09028 whole entry partner): as the sequence (Q09028 whole entry partner) above
Chain of wild type PRC2 (wtPRC2) complex (Q6ZN18 whole entry partner): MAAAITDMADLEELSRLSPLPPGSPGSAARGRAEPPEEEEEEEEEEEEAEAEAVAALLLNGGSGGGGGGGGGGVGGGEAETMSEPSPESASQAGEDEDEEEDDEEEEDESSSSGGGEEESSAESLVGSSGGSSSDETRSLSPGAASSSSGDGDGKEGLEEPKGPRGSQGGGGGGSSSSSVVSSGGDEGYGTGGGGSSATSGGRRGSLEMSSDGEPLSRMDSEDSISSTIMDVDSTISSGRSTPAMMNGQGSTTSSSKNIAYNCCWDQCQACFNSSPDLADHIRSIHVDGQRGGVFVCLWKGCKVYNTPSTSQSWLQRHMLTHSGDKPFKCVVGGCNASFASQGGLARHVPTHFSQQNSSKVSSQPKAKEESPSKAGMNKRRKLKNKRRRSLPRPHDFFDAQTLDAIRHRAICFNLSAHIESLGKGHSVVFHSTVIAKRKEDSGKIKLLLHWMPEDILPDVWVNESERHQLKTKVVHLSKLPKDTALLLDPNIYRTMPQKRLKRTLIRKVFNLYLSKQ

IC50 data for 19 molecules are collected here from patent publication US12544374B2, “AZA-quinoline compounds and uses thereof” (Novartis AG, priority 2019, dated 2026).

Usually IC50 stands for the concentration that gives 50% inhibition.

In the case of `CC(C(=O)N(C)C1COC1)c1cnc(NC[C@H]2CC[C@H](Nc3ccc4ccnc(Cl)c4n3)CC2)nc1` (mixture of isomers) [Compound C55, 2-(2-((((1,4-trans)-4-((8-chloro-1,7-naphthyridin-2-yl)amino)cyclohexyl)methyl)amino)pyrimidin-5-yl)-N-methyl-N-(oxetan-3-yl)propanamide], the IC50 in assay [1] was 0.002 µM; in assay [2], 0.054 µM.

With `COc1nccc2ccc(N[C@H]3CC[C@H](CNc4ncc(CC(=O)NC5COC5)cn4)CC3)nc12` [Compound C13, 2-(2-((((1,4-trans)-4-((8-methoxy-1,7-naphthyridin-2-yl)amino)cyclohexyl)methyl)amino)pyrimidin-5-yl)-N-(oxetan-3-yl)acetamide], the results for the IC50 in assay [1] and in assay [2] were 0.013 µM and 0.042 µM, respectively.

In the case of `O=C(Cc1cnc(NC[C@H]2CC[C@H](Nc3ccc4ccnc(Cl)c4n3)CC2)nc1)NC1CCC1` [Compound C44, 2-(2-((((1,4-trans)-4-((8-chloro-1,7-naphthyridin-2-yl)amino)cyclohexyl)methyl)amino)pyrimidin-5-yl)-N-cyclobutylacetamide], the IC50 in assay [1] turned out to be 0.163 µM; in assay [2], 0.054 µM.

With `O=C(Cc1cnc(NC[C@H]2CC[C@H](Nc3ccc4ccnc(Cl)c4n3)CC2)nc1)N1CCN(CCO)CC1` [Compound C40, 2-(2-((((1,4-trans)-4-((8-chloro-1,7-naphthyridin-2-yl)amino)cyclohexyl)methyl)amino)pyrimidin-5-yl)-1-(4-(2-hydroxyethyl)piperazin-1-yl)ethan-1-one], the IC50 in assay [1] was 0.028 µM; in assay [2], 0.046 µM.

As for `O=C(c1cnc(NC[C@H]2CC[C@H](Nc3ccc4ccnc(Cl)c4n3)CC2)nc1)N1CCOCC1` [Compound C22, (2-((((1,4-trans)-4-((8-chloro-1,7-naphthyridin-2-yl)amino)cyclohexyl)methyl)amino)pyrimidin-5-yl)(morpholino)methanone], the figures for the IC50 in assay [1] and in assay [2] were 0.188 µM and 0.046 µM, respectively.

On to `O=C(NC1COC1)c1cnc(NC[C@H]2CC[C@H](Nc3ccc4ccnc(Cl)c4n3)CC2)nc1` [Compound C25, 2-((((1,4-trans)-4-((8-chloro-1,7-naphthyridin-2-yl)amino)cyclohexyl)methyl)amino)-N-(oxetan-3-yl)pyrimidine-5-carboxamide], for which the IC50 in assay [1] is 0.285 µM; in assay [2], 0.023 µM.

`O=C1OCCN1c1cnc(NC[C@H]2CC[C@H](Nc3ccc4ccnc(Cl)c4n3)CC2)nc1` [Compound C64, 3-(2-((((1,4-trans)-4-((8-chloro-1,7-naphthyridin-2-yl)amino)cyclohexyl)methyl)amino)pyrimidin-5-yl)oxazolidin-2-one]: the concentration for half-maximal inhibition (IC50) worked out at 0.054 µM in assay [1] and 0.053 µM in assay [2].

Consider `O=S1(=O)CCN(Cc2cnc(NC[C@H]3CC[C@H](Nc4ccc5ccnc(Cl)c5n4)CC3)nc2)CC1` [Compound C30, 4-((2-((((1,4-trans)-4-((8-chloro-1,7-naphthyridin-2-yl)amino)cyclohexyl)methyl)amino)pyrimidin-5-yl)methyl)thiomorpholine 1,1-dioxide], for which the IC50 turned out to be 0.007 µM in assay [1] and 0.017 µM in assay [2].

In the case of `CNc1nccc2ccc(N[C@H]3CC[C@H](CNc4ncc(NC(C)=O)cn4)CC3)nc12` [Compound C63, N-(2-((((1,4-trans)-4-((8-(methylamino)-1,7-naphthyridin-2-yl)amino)cyclohexyl)methyl)amino)pyrimidin-5-yl)acetamide], the IC50 in assay [1] is 0.037 µM; in assay [2] it was 0.096 µM.

On to `COc1nccc2ccc(N[C@H]3CC[C@H](CNc4ncc(C(=O)N5CCN(C)CC5)cn4)CC3)nc12` [Compound C11, (2-((((1,4-trans)-4-((8-methoxy-1,7-naphthyridin-2-yl)amino)cyclohexyl)methyl)amino)pyrimidin-5-yl)(4-methylpiperazin-1-yl)methanone], for which the IC50 in assay [1] turned out to be 0.029 µM; in assay [2], 0.12 µM.

With `COC(=O)N(C)c1cnc(NC[C@H]2CC[C@H](Nc3ccc4ccnc(Cl)c4n3)CC2)nc1` [Compound C65, Methyl (2-((((1,4-trans)-4-((8-chloro-1,7-naphthyridin-2-yl)amino)cyclohexyl)methyl)amino)pyrimidin-5-yl)(methyl)carbamate], the IC50 in assay [1] came to 0.065 µM; in assay [2] it was 0.059 µM.

In the case of `CCN(CCC#N)C(=O)Cc1cnc(NC[C@H]2CC[C@H](Nc3ccc4ccnc(Cl)c4n3)CC2)nc1` [Compound C50, 2-(2-((((1,4-trans)-4-((8-chloro-1,7-naphthyridin-2-yl)amino)cyclohexyl)methyl)amino)pyrimidin-5-yl)-N-(2-cyanoethyl)-N-ethylacetamide], the IC50 in assay [1] turned out to be 0.027 µM; in assay [2] it was 0.023 µM.

For the molecule `O=C(CCC(=O)N1CCOCC1)Nc1cnc(NC[C@H]2CC[C@H](Nc3ccc4ccnc(Cl)c4n3)CC2)nc1` [Compound C20, N-(2-((((1,4-trans)-4-((8-chloro-1,7-naphthyridin-2-yl)amino)cyclohexyl)methyl)amino)pyrimidin-5-yl)-4-morpholino-4-oxobutanamide], the half-inhibitory concentration (IC50) in assay [1] is 0.127 µM; in assay [2], 0.068 µM.

With `CC(CO)Oc1cnc(NC[C@H]2CC[C@H](Nc3ccc4ccnc(Cl)c4n3)CC2)nc1` (stereo partly drawn) [Compound C68, 2-((2-((((1,4-trans)-4-((8-chloro-1,7-naphthyridin-2-yl)amino)cyclohexyl)methyl)amino)pyrimidin-5-yl)oxy)propan-1-ol], the IC50 in assay [1] is 0.018 µM; in assay [2], 0.049 µM.

`O=C(Cc1cnc(NC[C@H]2CC[C@H](Nc3ccc4ccnc(Cl)c4n3)CC2)nc1)N1CC(O)C1` [Compound C38, 2-(2-((((1,4-trans)-4-((8-chloro-1,7-naphthyridin-2-yl)amino)cyclohexyl)methyl)amino)pyrimidin-5-yl)-1-(3-hydroxyazetidin-1-yl)ethan-1-one]: the 50% inhibitory concentration (IC50) in assay [1] was 0.029 µM; in assay [2] it was 0.024 µM.

As to `Clc1nccc2ccc(N[C@H]3CC[C@H](CNc4ncc(CNCC5COC5)cn4)CC3)nc12` [Compound C31, 8-chloro-N-((1,4-trans)-4-(((5-(((oxetan-3-ylmethyl)amino)methyl)pyrimidin-2-yl)amino)methyl)cyclohexyl)-1,7-naphthyridin-2-amine], the figures for the IC50 in assay [1] and in assay [2] were 0.06 µM and 0.026 µM, respectively.

With `COc1nccc2ccc(N[C@H]3CC[C@H](CNc4ncc(NC(=O)C5CNC5)cn4)CC3)nc12` [Compound C2, N-(2-((((1,4-trans)-4-((8-methoxy-1,7-naphthyridin-2-yl)amino)cyclohexyl)methyl)amino)pyrimidin-5-yl)azetidine-3-carboxamide], the values for the IC50 in assay [1] and in assay [2] were 0.783 µM and 0.087 µM, respectively.

For `O=C(Nc1cnc(NC[C@H]2CC[C@H](Nc3ccc4ccnc(Cl)c4n3)CC2)nc1)OCCO` [Compound C17, 2-hydroxyethyl (2-((((1,4-trans)-4-((8-chloro-1,7-naphthyridin-2-yl)amino)cyclohexyl)methyl)amino)pyrimidin-5-yl)carbamate], the IC50 was determined as 0.01 µM in assay [1] and 0.088 µM in assay [2].

As to “2-methoxyethyl (2-((((1,4-trans)-4-((8-chloro-1,7-naphthyridin-2-yl)amino)cyclohexyl)methyl)amino)pyrimidin-5-yl)carbamate [Compound C16]”, the IC50 in assay [1] amounted to 0.027 µM; in assay [2], 0.015 µM.
